Data as given in DBAASP.
Converted amounts (≈) assume the structure as drawn. Each block holds one compound with its values, some of them ahead of it.

How the values were obtained:
Assay in all cases: ≥ marks a high value that may be exact or a test limit, other limits are often not marked, values filed in µg/mL are converted to µM
[1] = system: Listeria monocytogenes NCTC 18890
[2] = system: Staphylococcus aureus ATCC 6538
[3] = system: Listeria monocytogenes ATCC 7644
[4] = system: Staphylococcus aureus ATCC 25923
Listeria monocytogenes = system: Listeria monocytogenes
[5] = system: Listeria monocytogenes ATCC 19115
[6] = system: Pseudomonas aeruginosa ATCC 15442
[7] = system: Staphylococcus epidermidis ATCC 35984
[8] = system: Enterococcus faecalis ATCC 29212
[9] = system: Listeria monocytogenes ATCC 19114
[10] = system: Staphylococcus aureus ATCC 29213
[11] = system: Pseudomonas aeruginosa PAO1
[12] = system: Bacillus cereus ATCC 14579
[13] = system: Enterococcus faecium 5F-10
[14] = system: Escherichia coli ATCC 25922
[15] = system: Bacillus licheniformis ATCC 14580
[16] = system: Enterococcus faecalis 1F-1
[17] = system: Salmonella enterica ATCC H9812
[18] = system: Bacillus subtilis ATCC 6051
[19] = system: Bacillus amyloliquefaciens ATCC 23842
[20] = system: Proteus mirabilis ATCC 35659
[21] = system: Staphylococcus aureus ATCC 9144
[22] = system: Escherichia coli ATCC 10536
[23] = system: Bacillus subtilis ATCC 6633
[24] = system: Escherichia coli DH5alpha
[25] = system: Staphylococcus aureus JE2
[26] = system: Klebsiella pneumoniae ATCC 13883
[27] = system: Klebsiella pneumoniae NCTC 5055
[28] = system: Escherichia coli ATCC 15597
[29] = system: Micrococcus luteus ATCC 49732
[30] = system: Salmonella typhimurium DA6192
[31] = system: Pseudomonas aeruginosa ATCC 27853
[32] = system: Legionella pneumophila Lens
[33] = system: Salmonella enterica subsp. enterica serovar Enteritidis MH91989
[34] = system: Salmonella typhimurium SL1344
Escherichia coli O157:H7 = system: Escherichia coli O157:H7
Escherichia coli JJ2487 = system: Escherichia coli JJ2487
Escherichia coli J2210 = system: Escherichia coli J2210
Escherichia coli MC1061 = system: Escherichia coli MC1061
Escherichia coli C25 = system: Escherichia coli C25

Structure (SMILES): CC(C)C[C@H](NC(=O)[C@H](C)NC(=O)[C@H](Cc1cnc[nH]1)NC(=O)[C@H](Cc1cnc[nH]1)NC(=O)CNC(=O)[C@H](CC(C)C)NC(=O)[C@H](Cc1cnc[nH]1)NC(=O)[C@H](CO)NC(=O)[C@H](C)N)C(=O)N[C@@H](CC(=O)O)C(=O)N[C@@H](Cc1cnc[nH]1)C(=O)N[C@@H](CC(C)C)C(=O)N[C@@H](CC(C)C)C(=O)N[C@@H](CCCCN)C(=O)O [ASHLGHHALDHLLK]
- MIC [1]: ≥ 3230 µM
- MIC [2]: 8070 µM (≈ 12500 µg/mL)
- MIC [3]: ≥ 3230 µM
- MIC [4]: 8070 µM (≈ 12500 µg/mL)
- MIC (Listeria monocytogenes): ≥ 3230 µM
- MIC [5]: ≥ 3230 µM
- MIC [6]: ≥ 8070 µM
- MIC [7]: ≥ 8070 µM
- MIC [8]: 8070 µM (≈ 12500 µg/mL)
- MIC [9]: ≥ 3230 µM
- MIC [10]: 8070 µM (≈ 12500 µg/mL)

Structure (SMILES): CC(C)C[C@H](NC(=O)[C@H](CC(C)C)NC(=O)[C@H](CCC(=O)O)NC(=O)[C@@H](N)CC(=O)O)C(=O)N[C@@H](CO)C(=O)N[C@@H](CCCN=C(N)N)C(=O)N[C@H](C(=O)O)C(C)C [DELLSRV]
- MIC [11]: > 154 µM
- MIC [12]: ≥ 154 µM
- MIC [13]: ≥ 154 µM
- MIC [14]: 38.5 µM (≈ 32 µg/mL)
- MIC [15]: ≥ 154 µM
- MIC [16]: ≥ 154 µM
- MIC [17]: ≥ 77 µM
- MIC [18]: ≥ 154 µM
- MIC [19]: ≥ 154 µM
- MIC [20]: ≥ 154 µM
- MIC [10]: > 154 µM

Structure (SMILES): CC[C@H](C)[C@H](NC(=O)[C@H](CCCN=C(N)N)NC(=O)[C@H](CCCN=C(N)N)NC(=O)[C@@H]1CCCN1C(=O)[C@@H]1CCCN1C(=O)[C@H](CCCN=C(N)N)NC(=O)[C@@H]1CCCN1C(=O)[C@H](CCCN=C(N)N)NC(=O)[C@@H]1CCCN1C(=O)[C@H](CCCCN)NC(=O)[C@H](Cc1ccc(O)cc1)NC(=O)[C@@H]1CCCN1C(=O)[C@H](CCCCN)NC(=O)[C@H](CCCCN)NC(=O)[C@H](CC(=O)O)NC(=O)[C@@H](N)C(C)C)C(=O)N[C@@H](Cc1ccc(O)cc1)C(=O)N[C@@H](CC(N)=O)C(=O)N[C@@H](CCCN=C(N)N)C(N)=O [VDKKPYKPRPRPPRRIYNR]
- MIC [33]: 0.172 µM (≈ 0.42 µg/mL)
- MIC [34]: 0.172 µM (≈ 0.42 µg/mL)
- MIC (Escherichia coli O157:H7): 0.644 µM (≈ 1.57 µg/mL)
- MIC (Escherichia coli JJ2487): 0.123 µM (≈ 0.3 µg/mL)
- MIC (Escherichia coli J2210): 0.0821 µM (≈ 0.2 µg/mL)
- MIC (Escherichia coli MC1061): 0.0616 µM (≈ 0.15 µg/mL)

Structure (SMILES): CC[C@H](C)[C@H](NC(=O)CNC(=O)[C@H](CCCN=C(N)N)NC(=O)[C@H](Cc1ccc(O)cc1)NC(=O)[C@@H](NC(=O)[C@H](CCCN=C(N)N)NC(=O)[C@H](Cc1ccccc1)NC(=O)[C@@H](N)Cc1c[nH]c2ccccc12)C(C)C)C(=O)N[C@@H](Cc1ccc(O)cc1)C(=O)N[C@@H](CCCN=C(N)N)C(=O)N[C@@H](CCCN=C(N)N)C(=O)N[C@@H](CCCN=C(N)N)C(N)=O [WFRVYRGIYRRR]
- MIC [4]: 72 µM (≈ 124 µg/mL)
- MIC (Escherichia coli C25): ≥ 72 µM

More lines, now with the values ahead:

- MIC [21]: 4.2 µM (≈ 11.8 µg/mL)
- MIC [22]: 4.1 µM (≈ 11.5 µg/mL)
- MIC [23]: 3.9 µM (≈ 10.9 µg/mL)
- MIC [24]: 4.2 µM (≈ 11.8 µg/mL)
Structure (SMILES): CC[C@H](C)[C@H](NC(=O)CN)C(=O)NCC(=O)N[C@@H](C)C(=O)N[C@H](C(=O)N[C@@H](CC(C)C)C(=O)N[C@@H](CCCCN)C(=O)N[C@H](C(=O)N[C@@H](CC(C)C)C(=O)N[C@H](C(=O)N[C@H](C(=O)NCC(=O)N[C@@H](CC(C)C)C(=O)N1CCC[C@H]1C(=O)N[C@@H](C)C(=O)N[C@@H](C)C(=O)N[C@H](C(=O)N[C@@H](CO)C(=O)N[C@@H](Cc1c[nH]c2ccccc12)C(=O)N[C@H](C(=O)N[C@@H](CCCCN)C(=O)N[C@@H](CCCN=C(N)N)C(=O)N[C@@H](CCCCN)C(=O)N[C@@H](CCCN=C(N)N)C(=O)N[C@@H](CCC(N)=O)C(=O)N[C@@H](CCC(N)=O)C(N)=O)[C@@H](C)CC)[C@@H](C)CC)[C@@H](C)O)[C@@H](C)O)C(C)C)C(C)C [GIGAVLKVLTTGLPAAISWIKRKRQQ]

- MIC [11]: > 25 µM
- MIC [14]: > 25 µM
- MIC [25]: 1.56 µM (≈ 2.22 µg/mL)
- MIC [26]: 25 µM (≈ 35.5 µg/mL)
Structure (SMILES): CC(C)C[C@H](NC(=O)[C@H](CC(C)C)NC(=O)[C@H](CCCCN)NC(=O)[C@H](CC(C)C)NC(=O)CNC(=O)[C@H](CC(C)C)NC(=O)[C@H](CCCCN)NC(=O)[C@H](CC(C)C)NC(=O)[C@H](CC(C)C)NC(=O)[C@H](CC(C)C)NC(=O)[C@H](CCCCN)NC(=O)[C@H](CC(C)C)NC(=O)CN)C(N)=O [GLKLLLKLGLKLL]

- MIC [27]: ≥ 100 µM
- MIC [28]: ≥ 100 µM
- MIC [2]: > 100 µM
- MIC [29]: ≥ 100 µM
- MIC [23]: ≥ 100 µM
- MIC [30]: ≥ 100 µM
- MIC [31]: > 100 µM
Structure (SMILES): CC[C@H](C)[C@H](N)C(=O)N[C@H](C(=O)N[C@@H](CCCCN)C(=O)N[C@@H](CCC(N)=O)C(=O)N[C@H](C(=O)N[C@H](C(=O)N[C@@H](CCCCN)C(=O)N[C@@H](CCC(N)=O)C(=O)N[C@@H](CC(C)C)C(=O)N[C@@H](CC(N)=O)C(=O)N[C@@H](CCCN=C(N)N)C(=O)N[C@@H](CCC(N)=O)C(=O)N[C@H](C(=O)N[C@@H](CCCCN)C(=O)N[C@H](C(=O)N[C@@H](CCC(N)=O)C(=O)N[C@@H](CO)C(=O)N[C@@H](CCCCN)C(=O)O)[C@@H](C)CC)[C@@H](C)O)[C@@H](C)O)[C@@H](C)CC)[C@@H](C)O [ITKQITKQLNRQTKIQSK]

- MIC [32]: 1.26 µM (≈ 3.12 µg/mL)
Structure (SMILES): CC[C@H](C)[C@H](NC(=O)[C@H](CC(C)C)NC(=O)[C@H](CC(=O)O)NC(=O)[C@@H](NC(=O)[C@@H](NC(=O)[C@H](Cc1ccccc1)NC(=O)[C@H](CCC(N)=O)NC(=O)[C@@H](N)CCSC)[C@@H](C)CC)[C@@H](C)O)C(=O)N[C@@H](CCCCN)C(=O)N[C@@H](CCCCN)C(=O)N[C@@H](C)C(=O)N[C@H](C(=O)N[C@@H](CC(=O)O)C(=O)N[C@H](C(=O)N[C@H](C(=O)N[C@@H](CCCCN)C(=O)NCC(=O)N[C@@H](CC(C)C)C(=O)N[C@@H](Cc1ccccc1)C(=O)NCC(=O)N[C@@H](CC(N)=O)C(=O)N[C@@H](CCCCN)C(=O)O)[C@@H](C)CC)C(C)C)C(C)C [MQFITDLIKKAVDVIKGLFGNK]
